In patent publication US7495017B2, “Phosphodiesterase 4 inhibitors” (Memory Pharmaceuticals Corporation, priority 2003, dated 2009):

COc1ccc(-c2ccn[nH]2)cc1O[C@@H]1CCOC1 [Example 1B, 3-[4-Methoxy-3-(3R)-tetrahydrofuranyloxyphenyl]-1H-pyrazole]
melting point: 149 to 151 °C
